Here are results for 13 compounds from ChEMBL document CHEMBL4651402, “Screening of ~5500 FDA-approved drugs and clinical candidates for anti-SARS-CoV-2 activity” (2021).

SMILES strings stand for the structures. A value given as a limit tells only on which side of the number the result lay.

Series [1] deals with SARS-CoV-2. The series can be described thus: microbe, parasite or virus in culture. Particulars: Severe acute respiratory syndrome coronavirus 2, Vero C1008, 48 h. It is filed as functional, organism-based, Chlorocebus sabaeus, Vero C1008.
The nature of a further series: in vitro. As to conditions: chlorocebus sabaeus.
Series [2] relates to SARS-CoV-2. The series can be described thus: microbe, parasite or virus in culture. Particulars: Severe acute respiratory syndrome coronavirus 2, Vero C1008, 48 h.
Setting [3] is: Vero E6 (Vero C1008) cells, CC50.
The mark [4] stands for this setting: Vero E6 (Vero C1008) cells, pCC50.

On to `CCC1CN2CCC1CC2C(O)c1ccnc2ccc(OCCC(C)C)cc12` (stereo not drawn), for which the IC50 in the series with SARS-CoV-2 [1] (read-out: IC50), in the series with SARS-CoV-2 [1] (read-out: pIC50 (converted)), in the series on SARS-CoV-2 [2] and in the series with SARS-CoV-2 [2] (read-out: pIC50 (converted)) was over 100 µM in each case. Moreover, the CC50 at 48 h in the series “in vitro” (setting [3]) was 11.4 µM; in “in vitro” (setting [4]), 11.2 µM.
On to `OC1(c2ccc(Cl)c(C(F)(F)F)c2)CCN(CCCC(c2ccc(F)cc2)c2ccc(F)cc2)CC1` [PENFLURIDOL], for which the IC50 in the series on SARS-CoV-2 [1] (read-out: IC50), in the series on SARS-CoV-2 [1] (read-out: pIC50 (converted)), with SARS-CoV-2 [2] and with SARS-CoV-2 [2] (read-out: pIC50 (converted)) was over 100 µM each time. In addition, the CC50 at 48 h in the series “in vitro” (setting [3]) was 3.59 µM; in the series “in vitro” (setting [4]) it was 3.55 µM.
Regarding `Cc1[nH]c(/C=C2/C(=O)Nc3ccccc32)c(C)c1CCC(=O)O`, the IC50 in the series on SARS-CoV-2 [1] (read-out: IC50) was over 50.1 µM; in the series with SARS-CoV-2 [1] (read-out: pIC50 (converted)) it was over 50.1 µM; in the series on SARS-CoV-2 [2], about 2 µM; in the series with SARS-CoV-2 [2] (read-out: pIC50 (converted)) it was about 2 µM. In addition, the CC50 at 48 h in the series “in vitro” (setting [3]) and in “in vitro” (setting [4]) was over 50.1 µM in each case.
Consider `Cc1cc2cc(Oc3ccnc(Nc4cccc(CS(=O)(=O)NCCN(C)C)c4)n3)ccc2[nH]1` [SURUFATINIB], for which the IC50 in the series on SARS-CoV-2 [1] (read-out: IC50) is over 50.1 µM; in the series with SARS-CoV-2 [1] (read-out: pIC50 (converted)) it was over 50.1 µM; in the series on SARS-CoV-2 [2], over 10 µM; with SARS-CoV-2 [2] (read-out: pIC50 (converted)) it was over 10 µM. The CC50 at 48 h in the series “in vitro” (setting [3]) and in the series “in vitro” (setting [4]) was 4.9 µM throughout.
Regarding `N=C(N)c1ccc(C=C2c3ccccc3-c3ccccc32)cc1` [PARANYLINE], the IC50 was over 100 µM in the series on SARS-CoV-2 [1] (read-out: IC50), over 100 µM with SARS-CoV-2 [1] (read-out: pIC50 (converted)), 3.47 µM in the series with SARS-CoV-2 [2] and 3.47 µM with SARS-CoV-2 [2] (read-out: pIC50 (converted)). Besides, the CC50 at 48 h in the series “in vitro” (setting [3]) was 2.92 µM; in “in vitro” (setting [4]) it was 2.88 µM.
For `CNCCC=C1c2ccccc2CCc2ccccc21` [NORTRIPTYLINE], the IC50 in the series on SARS-CoV-2 [1] (read-out: IC50) is over 100 µM; with SARS-CoV-2 [1] (read-out: pIC50 (converted)), over 100 µM; in the series on SARS-CoV-2 [2] it was 15.9 µM; in the series on SARS-CoV-2 [2] (read-out: pIC50 (converted)), 15.8 µM. Moreover, the CC50 at 48 h in the series “in vitro” (vero c1008, CC50) is 24 µM; in the series “in vitro” (vero c1008, pCC50) it was 24 µM.
Turning to `CN(C)CCOC1=Cc2ccccc2Sc2ccc(Cl)cc21` [ZOTEPINE], the IC50 with SARS-CoV-2 [1] (read-out: IC50), with SARS-CoV-2 [1] (read-out: pIC50 (converted)), with SARS-CoV-2 [2] and with SARS-CoV-2 [2] (read-out: pIC50 (converted)) was over 100 µM each time. Further, the CC50 at 48 h in “in vitro” (setting [3]) and in “in vitro” (setting [4]) was 12.3 µM each time.
Turning to `CCC(CC)COC(=O)[C@H](C)N[P@](=O)(OC[C@H]1O[C@@](C#N)(c2ccc3c(N)ncnn23)[C@H](O)[C@@H]1O)Oc1ccccc1`, the IC50 with SARS-CoV-2 [1] (read-out: IC50) is about 2.6 µM; in the series on SARS-CoV-2 [1] (read-out: pIC50 (converted)) it was about 2.57 µM; with SARS-CoV-2 [2], about 4.64 µM; with SARS-CoV-2 [2] (read-out: pIC50 (converted)), about 4.68 µM. Besides, the CC50 at 48 h in the series “in vitro” (setting [3]) and in the series “in vitro” (setting [4]) was 95.5 µM in each case.
As for `CC(=O)NC1(c2ccccc2)CCN(CCC(CN(C)C(=O)c2ccccc2)c2ccc(Cl)c(Cl)c2)CC1` (stereo not drawn), the IC50 in the series on SARS-CoV-2 [1] (read-out: IC50), with SARS-CoV-2 [1] (read-out: pIC50 (converted)), in the series with SARS-CoV-2 [2] and with SARS-CoV-2 [2] (read-out: pIC50 (converted)) was over 100 µM throughout. Further, the CC50 at 48 h in the series “in vitro” (setting [3]) and in the series “in vitro” (setting [4]) was 23.4 µM each time.
For the compound `CCN(CCO)CCC[C@@H](C)Nc1ccnc2cc(Cl)ccc12`, the IC50 was over 50.1 µM with SARS-CoV-2 [1] (read-out: IC50), over 50.1 µM in the series with SARS-CoV-2 [1] (read-out: pIC50 (converted)), 12.7 µM with SARS-CoV-2 [2] and 12.6 µM in the series with SARS-CoV-2 [2] (read-out: pIC50 (converted)). In addition, the CC50 at 48 h in “in vitro” (setting [3]) and in the series “in vitro” (setting [4]) was over 50.1 µM throughout.
`CCCC(C(=O)OCCN(CC)CC)(c1ccccc1)c1ccccc1` [PROADIFEN]: the IC50 is over 100 µM with SARS-CoV-2 [1] (read-out: IC50), over 100 µM in the series with SARS-CoV-2 [1] (read-out: pIC50 (converted)), 5.13 µM with SARS-CoV-2 [2] and 5.13 µM in the series with SARS-CoV-2 [2] (read-out: pIC50 (converted)). Further, the CC50 at 48 h in “in vitro” (setting [3]) and in “in vitro” (setting [4]) was 24 µM each time.
On to `CC(CN(C)C)CN1c2ccccc2Sc2ccccc21` (stereo not drawn), for which the IC50 with SARS-CoV-2 [1] (read-out: IC50) is over 25.1 µM; in the series with SARS-CoV-2 [1] (read-out: pIC50 (converted)), over 25.1 µM; in the series with SARS-CoV-2 [2] it was 17.4 µM; in the series on SARS-CoV-2 [2] (read-out: pIC50 (converted)) it was 17.4 µM. Further, the CC50 at 48 h in “in vitro” (setting [3]) and in “in vitro” (setting [4]) was 21.4 µM in each case.
`COc1cc2c(cc1OC)C(c1cccc(Cl)c1)=NN=C(C)C2` [GIRISOPAM]: the IC50 in the series on SARS-CoV-2 [1] (read-out: IC50), in the series on SARS-CoV-2 [1] (read-out: pIC50 (converted)), in the series on SARS-CoV-2 [2] and in the series on SARS-CoV-2 [2] (read-out: pIC50 (converted)) was over 100 µM each time. For the same compound, the CC50 at 48 h in the series “in vitro” (setting [3]) and in “in vitro” (setting [4]) was over 100 µM in each case.
